Entries after “also recorded” stand apart in the source; their conditions may differ.
Key:
NKp46D2-Ig [1] = molecular target: T1, NKp46D2-Ig (Homo sapiens, UniProt O76036); experiment: Inhibition of NKp46D2-Ig binding to tumor cells by premixed saccharides (flow cytometry); details: for Inhibition of binding of NKp46D2-Ig to tumor cells: cell line not specified; for Inhibition of binding of NKp46D2-Ig: HeLa and PC-3, FIGS. 2B, 2C
T1 construct: residues 101-235 (D2) of the mature NKp46 protein were PCR amplified; CD5 leader peptide (with added Met start codon) (N); made in house
T1 sequence (O76036 with tags, fused parts or gaps isoform O76036-6): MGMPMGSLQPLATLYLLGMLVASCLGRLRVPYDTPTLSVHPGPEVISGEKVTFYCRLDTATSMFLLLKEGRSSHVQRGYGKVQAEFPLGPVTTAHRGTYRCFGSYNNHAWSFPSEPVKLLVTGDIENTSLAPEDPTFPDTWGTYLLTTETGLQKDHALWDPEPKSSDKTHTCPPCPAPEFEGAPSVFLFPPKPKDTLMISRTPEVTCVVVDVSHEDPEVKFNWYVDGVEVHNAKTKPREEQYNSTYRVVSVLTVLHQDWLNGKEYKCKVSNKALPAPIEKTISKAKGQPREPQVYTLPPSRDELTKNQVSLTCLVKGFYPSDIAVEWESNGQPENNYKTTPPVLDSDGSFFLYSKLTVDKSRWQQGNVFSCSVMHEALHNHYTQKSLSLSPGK
Experimental: (§1) Cells were incubated with the various fusion-Igs for 2 h at 4° C., washed and stained with FITC-conjugated-F(ab′)2-Goat-anti-human-IgG-Fcy (109-096-098, Jackson ImmunoResearch, West Grove, Pa.). Staining and washing buffer consisted of 0.5% (w/v) BSA and 0.05% sodium azide in PBS. Staining of CHO and mutant CHO cells was carried out with 2% FCS instead of bovine serum albumin (BSA) in the different buffers. Propidium iodide (PI) was added prior to reading for exclusion of dead cells. Flow cytometry was performed using a FACSCalibur flow cytometer (Becton Dickinson, Mountain View, Calif.). Data files were acquired and analyzed using BD CELLQuest™ 3.3 software.
(§2) For most binding inhibition experiments, 20 μg of fusion-Ig were premixed with the GAG and added to cells for staining as above. In all experiments, each sample was stained twice in different wells. When results are presented as MFI (median fluorescence intensity), average MFI∓SD of the duplicate staining is shown to reveal consistency of staining procedure. Human IgG1 (hIgG1 kappa, PHP010) was purchased from Serotec, Oxford, UK. Staining with the anti-heparin/heparan sulfate antibody HS4E4 was previously described (35).

NKp30-Ig [2] = molecular target: T2, NKp30-Ig (Homo sapiens, UniProt O14931); experiment: Inhibition of NKp30-Ig binding to tumor cells by premixed saccharides (flow cytometry); details: cell line not specified
T2 construct: made in house
T2 sequence (O14931 with tags, fused parts or gaps P25L): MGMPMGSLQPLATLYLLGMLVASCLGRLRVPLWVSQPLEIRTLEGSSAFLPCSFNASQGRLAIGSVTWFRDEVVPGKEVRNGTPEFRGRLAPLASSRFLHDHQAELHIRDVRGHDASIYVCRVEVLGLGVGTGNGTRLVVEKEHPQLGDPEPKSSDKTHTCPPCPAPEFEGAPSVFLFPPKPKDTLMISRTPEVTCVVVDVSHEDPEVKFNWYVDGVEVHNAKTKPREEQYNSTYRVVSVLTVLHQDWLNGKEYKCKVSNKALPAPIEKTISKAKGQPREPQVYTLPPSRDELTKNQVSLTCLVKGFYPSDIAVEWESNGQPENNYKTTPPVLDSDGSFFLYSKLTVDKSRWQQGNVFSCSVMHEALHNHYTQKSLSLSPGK
Experimental: as §1, §2

NKp30-Ig [3] = molecular target: T3, NKp30-Ig (Homo sapiens, UniProt O14931, P25L); experiment: as above
T3 construct: made in house
T3 sequence (O14931 with tags, fused parts or gaps P25L): as above
Experimental: as §1, §2

LIR1-Ig = molecular target: T4, LIR1-Ig (Homo sapiens, UniProt Q8NHL6); experiment: Effect of premixed saccharides on LIR1-Ig binding to HeLa cells (flow cytometry); details: Glyc-PAA mixed with Ig-fusion protein, FIG. 1A
T4 construct: made in house
T4 sequence (Q8NHL6 with tags, fused parts or gaps limits assumed): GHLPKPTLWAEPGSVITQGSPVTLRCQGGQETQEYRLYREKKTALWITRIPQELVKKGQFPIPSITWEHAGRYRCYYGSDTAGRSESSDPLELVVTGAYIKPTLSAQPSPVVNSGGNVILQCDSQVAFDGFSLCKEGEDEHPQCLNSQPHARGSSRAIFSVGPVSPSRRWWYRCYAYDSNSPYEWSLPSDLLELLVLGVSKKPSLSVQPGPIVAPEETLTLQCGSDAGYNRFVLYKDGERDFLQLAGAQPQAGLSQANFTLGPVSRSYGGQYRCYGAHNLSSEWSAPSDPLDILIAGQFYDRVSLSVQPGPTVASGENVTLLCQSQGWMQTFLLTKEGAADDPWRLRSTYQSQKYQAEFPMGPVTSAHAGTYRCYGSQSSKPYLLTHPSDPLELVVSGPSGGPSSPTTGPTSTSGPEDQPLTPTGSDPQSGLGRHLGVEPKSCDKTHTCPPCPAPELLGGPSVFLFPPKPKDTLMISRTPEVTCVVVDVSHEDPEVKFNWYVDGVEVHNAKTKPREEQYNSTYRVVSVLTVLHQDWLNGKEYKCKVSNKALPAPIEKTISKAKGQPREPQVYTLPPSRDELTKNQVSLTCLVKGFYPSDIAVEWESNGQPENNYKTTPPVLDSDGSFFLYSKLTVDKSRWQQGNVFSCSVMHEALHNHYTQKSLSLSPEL
Experimental: as §1, §2

HeLa cells [4] = experiment: Lysis of HeLa cells by primary NK lines (cytotoxicity assay); type: cell-based, human; details: FIG. 6A
Experimental: The cytotoxic activity of NK lines against the various targets was assessed in 5-hr 35S-release assays and in 4-hr Eu release time-resolved fluorescence assays, as previously described (20). In experiments where carbohydrates were included, NK cells were first mixed with the carbohydrates and then added to target cells. […] Each point represents the average of duplicate/triplicate values.
To test the role of NKp46 and NKp30 recognition of carbohydrates in NK lysis, the lysis of HeLa cells by NKs in the presence of Glyc-PAA was studied.

NKp46D2-Ig [5] = experiment: Treatment of tumor cells (GAG-degrading enzymes, glycosylation or GPI-anchor blockers) then staining with NKp46D2-Ig; type: cell-based, human
Experimental: as §1
(§3) Tumor cells (10^6) were washed twice in PBS, resuspended in 1ml reaction buffer alone (mock) or reaction buffer containing one of the following GAG-degrading enzymes (Sigma): keratanase (0.94 u/ml, K-2876), heparin lyase I (1.56 u/ml, H-2519) and heparin lyase III (1.25 u/ml, H-8891). Reaction buffer consisted of 1% (w/v) BSA, 1 μg/ml leupeptin and 10 u/ml aprotinin in PBS. Cells were incubated with enzyme for 60 min at 37° C., washed two times with PBS and stained with fusion-Igs as above.
(§4) The involvement of cell membrane-associated GAGs in the binding of NKp46D2-Ig and NKp30-Ig to their cellular ligands was examined. […]

NKp30-Ig [6] = experiment: Treatment of tumor cells (GAG-degrading enzymes, glycosylation or GPI-anchor blockers) then staining with NKp30-Ig; type: cell-based, human
Experimental: as §1, §3, §4

HeLa cells [7] = experiment: Staining of HeLa cells with fusion-Igs (flow cytometry); type: binding, human
Experimental: as §1

EB-SP = experiment: Staining of EB-SP cells expressing cell-surface heparanase with fusion-Igs; type: binding, murine; details: as compared to parental EB or EB-mock transfected
Experimental: as §1
The EB T lymphoma cell line and EB-SP cells that express a functional heparanase on the cell surface (16) were stained with NKp46D2-Ig. […] An alternative interpretation is that the binding is to a cell-surface molecule associated with heparan sulfate. […] Membrane-associated heparan sulfate proteoglycans (HSPGs) can be divided into two families: glypicans, which are attached to the plasma membrane via glycosylphosphatidylinositol (GPI) anchors, and syndecans, which are transmembrane proteins (23). The involvement of GPI-anchored proteins in the binding of NKp30-Ig and NKp46D2-Ig to tumor cells was examined. Treatment of cells with D-mannosamine (white bars) inhibits GPI-anchor formation.

[8] = tested on: mutant CHO cells lacking HSPG; experiment: Binding to mutant CHO cells lacking HSPG; details: as compared to wt CHO cells; FIG. 7A
Experimental: as §1
To further test the role of NKp46 and NKp30 recognition of carbohydrates in NK lysis, the lysis of CHO mutants lacking HSPG was examined. […] Thus, reduction in binding of NKp46-D2-Ig and NKp30-Ig to tumor cells lacking HSPG is correlated with reduced lysis of these cells by NK cells.

IV-infected cells = experiment: Binding of wild type and mutated NKp46D2 fusion proteins to IV-infected cells; details: FIG. 10
Experimental: as §1
Based on the observations described above, certain site-directed mutations were made in NKp46D2 (Lys 157, Arg 160, His 163 and Arg 166; 4 point mutations) or (Lys 157, Arg 160, His 163, Arg 166, and Lys 170; 5 point mutations) into hydrophilic, neutral, amino acids with residues of similar size and to compare the ability of the mutant and the wild type receptors to bind heparin/heparan sulfate. Two constructs were prepared: Q4 (K157Q, R160Q, H163Q, and R166Q) and Q4T1 (K157Q, R160Q, H163Q, R166Q, and K170T). The mutated referred to herein as SEQ ID NO:29 SEQ ID NO:30.. Corresponding fusion proteins were prepared (NKp46D2-Q4-Ig and NKp46D2-Q4T1-Ig) and compared to NKp46D2-Ig.

[9] = Glyc-PAA mixed with Ig-fusion protein, HeLa cells, FIG. 1A
[10] = Glyc-PAA premix, inconsistent inhibition phenotype
[11] = HeLa cells pretreated with 40mM D-mannosamine overnight, FIG. 4D
[12] = tumor cells treated before staining

3′-O-sulfo-LacNAc
Inhibition of binding of NKp46D2-Ig to tumor cells (NKp46D2-Ig [1]): did not inhibit binding
Inhibition of binding of NKp30-Ig to tumor cells (NKp30-Ig [2]): did not inhibit binding

4 ′, 6′-di-O-sulfo-LacNAc
Inhibition of binding of NKp46D2-Ig to tumor cells (NKp46D2-Ig [1]): did not inhibit binding
Inhibition of binding of NKp30-Ig to tumor cells (NKp30-Ig [2]): did not inhibit binding

6-O-sulfo-LacNAc-PAA
Inhibition of binding of NKp46D2-Ig to HeLa cells (NKp46D2-Ig [1]; [9]): inhibited binding
Effect on binding of the fusion proteins after pre-incubation of the cells (NKp46D2-Ig [1]; cells pre-incubated with the saccharide, followed by wash and application of the fusion proteins): did not affect the binding
Inhibition of binding of NKp30-Ig to HeLa cells (NKp30-Ig [3]; [9]): inhibited
Inhibition of binding of LIR1-Ig to HeLa cells (LIR1-Ig): not the positive binding of LIR1-Ig
Reduction of lysis of HeLa cells by NK (HeLa cells [4]; 0.9 mM): significant reduction of lysis
Reduction of lysis of HeLa cells by NK (HeLa cells [4]; agent present during lysis assay, Glyc-PAA 0.225 to 0.9 mM, E:T 50:1, 4 h): two fold

6′-O-sulfo-LacNAc
reduction in binding of NKp46D2-Ig (NKp46D2-Ig [1]; [10]): up to 25%
reduction in binding of NKp30-Ig (NKp30-Ig [3]; [10]): up to 25%

N[C@@H]1C(O)O[C@H](CO)[C@@H](O)[C@@H]1O (stereo partly drawn) [D-mannosamine]
Reduction of binding of NKp46D2-Ig (NKp46D2-Ig [5]; [11]): 4 fold
Reduction of binding of NKp30-Ig (NKp30-Ig [6]; [11]): 2 fold

CC(=O)N[C@H]1[C@@H](OCc2ccccc2)O[C@H](CO)[C@H](O)[C@@H]1O [abenzyl-GalNAc]
Effect of cell treatment on binding of NKp46D2-Ig (NKp46D2-Ig [5]; [12]): significantly reduced the binding
Effect of cell treatment on binding of NKp30-Ig (NKp30-Ig [6]; [12]): significantly reduced the binding

N-desulfated heparin
Inhibition of NKp46D2-Ig binding by modified heparins (NKp46D2-Ig [1]; heparins modified in sulfation or acetylation, HeLa cells, FIG. 2D): potent inhibitor

heparan sulfate
Inhibition of binding of NKp46D2-Ig (NKp46D2-Ig [1]; 0.1 μg/ml): inhibit binding
Inhibition of binding of NKp46D2-Ig to tumor cells (NKp46D2-Ig [1]): directly inhibits the binding; also recorded: potent inhibitors
Inhibition of binding of NKp30-Ig to tumor cells (NKp30-Ig [2]): directly inhibits the binding; also recorded: potent inhibitors

hyaluronic acid
Inhibition of binding of NKp46D2-Ig (NKp46D2-Ig [1]; incremental concentrations up to 10 μg/ml): did not inhibit binding

B1: NKp46D2-Ig: truncated fusion protein: D2 of NKp46 with CD5 leader fused to Fc portion of human IgG1 (protein)
chain: MAWMLLLILIMVHPGSCALWVSQPPEIRTLEGSSAFLPCSFNASQGRLAIGSVTWFRDEVVPGKEVRNGTPEFRGRLAPLASSRFLHDHQAELHIRDVRGHDASIYVCRVEVLGLGVGTGNGTRLVVEKEHPQLGAGTVLLLRAGFYAVSFLSVAVGSTVYYQGKCLTWKGPRRQLPAVVPAPLPPPCGSSAHLLPPVPGG
modifications: homo sapiens
Binding to HeLa cells (HeLa cells [7]): bound well
Reduction of staining of EB-SP (EB-SP; FIG. 4C): 50%
Binding to mutant CHO cells lacking HSPG [8]: significantly reduced
Binding to IV-infected cells (IV-infected cells): bind similarly

B2: NKp30-Ig: protein conjugate comprising CD5 leader sequence and NKp30 D domain fused to Fc domain (protein)
chain: MAWRALHPLLLLLLLFPGSQAQSKAQVLQSVAGQTLTVRCQYPPTGSLYEKKGWCKEASALVCIRLVTSSKPRTMAWTSRFTIWDDPDAGFFTVTMTDLREEDSGHYWCRIYRPSDNSVSKSVRFYLVVSPASASTQTPWTPRDLVSSQTQTQSCVPPTAGARQAPESPSTIPVPSQPQNSTLRPGPAAPIALVPVFCGLLVAKSLVLSALLVWWGDIWWKTVMELRSLDTQKATCHLQQVTDLPWTSVSSPVEREILYHTVARTKISDDDDEHTL
modifications: homo sapiens
Binding to HeLa cells (HeLa cells [7]): bound well
Staining of EB-SP compared with EB (EB-SP): same phenotype
Binding to mutant CHO cells lacking HSPG [8]: significantly reduced

Reference: patent publication US20070280938A1, “Peptides Derived from Natural Cytotoxicity Receptors and Methods of Use Thereof” (YISSUM RESEARCH AND DEVELOPMENT COMPANY OF THE HEBREW …, priority 2003, published 2007)
